Patent publication US6329189A, “Enzyme producing tartaric acid ether compound and process for producing tartaric acid ether compounds using this enzyme” (Kikkoman Corporation, priority 1998, dated 2001)
Counter-ions that a name gives are not always drawn.

What was measured:
[1] = tested on: enzyme producing tartaric acid ether compound; assay: Km value from Lineweaver-Burk's plot; format: biochemical, Aspergillus oryzae; settings: compound used as substrate
[2] = biological target: T1, histidine decarboxylase (HDC) (Homo sapiens, UniProt P19113); settings: from JP-A-9-110857 and JP-A-10-59956; cited from earlier work
T1 sequence (P19113 1-662): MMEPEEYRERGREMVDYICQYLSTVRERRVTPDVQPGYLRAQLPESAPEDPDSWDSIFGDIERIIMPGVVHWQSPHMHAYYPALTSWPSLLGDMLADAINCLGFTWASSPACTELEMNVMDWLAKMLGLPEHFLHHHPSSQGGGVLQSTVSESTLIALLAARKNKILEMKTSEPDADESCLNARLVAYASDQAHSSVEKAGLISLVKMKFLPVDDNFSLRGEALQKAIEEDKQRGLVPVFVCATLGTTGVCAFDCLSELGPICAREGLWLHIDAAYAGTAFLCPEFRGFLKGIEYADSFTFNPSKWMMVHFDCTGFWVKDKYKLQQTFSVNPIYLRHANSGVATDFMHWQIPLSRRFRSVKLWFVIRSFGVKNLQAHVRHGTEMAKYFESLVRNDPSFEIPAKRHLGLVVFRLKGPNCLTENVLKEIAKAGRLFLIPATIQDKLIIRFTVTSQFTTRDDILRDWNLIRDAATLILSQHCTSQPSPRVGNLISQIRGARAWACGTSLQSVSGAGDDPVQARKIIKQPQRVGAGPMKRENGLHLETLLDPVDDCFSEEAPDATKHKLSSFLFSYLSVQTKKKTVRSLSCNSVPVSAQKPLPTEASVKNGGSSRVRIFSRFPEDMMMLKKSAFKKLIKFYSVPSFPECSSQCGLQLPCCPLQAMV

[3] = Solubility in solvents of the enzyme reaction products; format: physicochemical; settings: water, methanol, DMSO
[4] = tested on: enzyme producing tartaric acid ether compound; assay: Substrate specificity of the present enzyme in the presence of (±)-trans-epoxysuccinic acid; format: biochemical, Aspergillus oryzae; settings: for Action of the enzyme to the phenolic hydroxyl groups of the substrate (in words): in the presence of (±)-trans-epoxysuccinic acid; for Relative activity (%): substrate in the presence of (±)-trans-epoxysuccinic acid, decrement of genistein as substrate expressed as 100
Experimental: The activities of the present enzyme to the various substrate compounds having a phenolic hydroxyl group(s) shown in Table 1 in the presence of (±)-trans-epoxysuccinic acid were measured and shown as relative activities (%) with reference to the activity to genistein which was expressed as 100. The measurement of activity was conducted under the same conditions as used for the determination of titer described later.
Enzyme titer was determined by the following method. The amount of the enzyme that produces 1 μmol of 2-hydroxy-3-[[5-hydroxy-3-(4-hydroxyphenyl)-4-oxo-4H-1-benzopyran-7-yl]oxy]-butanedioic acid in one minute in the reaction of the following formula (6) is expressed as 1 U. [drawing 1]
Substrate solution I: 60 mM (±)-trans-epoxysuccinic acid (Tokyo Kasei Kogyo Co., Ltd.) was dissolved in 100 ml of a 50 mM sodium acetate-acetic acid buffer (pH 6.0), and the solution was adjusted to pH 6.0 with sodium hydroxide.
Substrate solution II: Prepared by dissolving 0.3 mmol of genistein (Funakoshi Co., Ltd.) in 100 ml of dimethyl sulfoxide.
50 mmol of sodium acetate and 40 mmol of manganese sulfate were dissolved in distilled water, and the solution was adjusted to pH 6.0 with acetic acid and made one litre.
(1) 0.175 ml of the buffer, 0.1 ml of the substrate solution I and 0.01 ml of an enzyme solution were pipetted into a microtube, and the mixed solution was preincubated at 37° C. for 5 minutes.
(2) The above solution was mixed with 0.025 ml of the substrate solution II and reacted at 37° C. for 15 minutes, after which 0.01 ml of concentrated hydrochloric acid was added to stop the reaction. Used as control was a solution prepared in the same way as described above except that 0.01 ml of the buffer was added in place of 0.01 ml of the enzyme solution.
2-hydroxy-3-[[5-hydroxy-3-(4-hydroxyphenyl)-4-oxo-4H-1-benzopyran-7-yl]oxy]-butanedioic acid produced from the reaction of the formula (6) was determined by HPLC under the following conditions: […]
Column: Wakosil-II5C18HG (4.6 mm×30 mm+4.6 mm×250 mm, mfd. by Wako Pure Chemical Industries, Ltd.).
Eluent: distilled water containing 0.05% of trifluoroacetic acid and 28.8% of acetonitrile.
Detecting wavelengh: 260 nm.

[5] = tested on: enzyme producing tartaric acid ether compound; assay: Influence of metallic ions on the action of the present enzyme; format: biochemical, Aspergillus oryzae; settings: for Relative activity (%): activity with no addition = 100%; for Influence on the activity of the present enzyme (in words): presence of the ion or EDTA
Experimental: "Relative activity (%)" in Table 2 is the value relative to the activity (expressed as 100) observed when no metallic ion was added.
The activity observed with no addition of metallic ions was expressed as 100%.

| Action of the enzyme to the phenolic hydroxyl groups of the substrate (in words) [4] | Relative activity (%) [4] [%] | Compound | also measured |
| --- | --- | --- | --- |
| acts in a favorable way | 92 | O=c1cc(-c2ccc(O)cc2)oc2cc(O)cc(O)c12 [apigenin] |  |
| acts in a favorable way | 321 | O=c1cc(-c2ccccc2)oc2cc(O)c(O)c(O)c12 [baicalein] |  |
| acts in a favorable way | 86 | COc1ccc(-c2coc3cc(O)cc(O)c3c2=O)cc1 [biochanin A] |  |
| acts in a favorable way | 58 | O=c1oc2cc(O)ccc2c2oc3cc(O)ccc3c12 [courmestrol] |  |
| acts in a favorable way | 52 | O=c1c(-c2ccc(O)cc2)coc2cc(O)ccc12 [daidzein] |  |
| acts in a favorable way | 278 | O=c1c(O)c(-c2ccc(O)cc2)oc2cc(O)cc(O)c12 [kaempferol] |  |
| acts faintly | 4 | O=c1cc(CO)occ1O [kojic acid] |  |
| acts in a favorable way | 194 | O=C1C[C@@H](c2ccc(O)cc2)Oc2cc(O)cc(O)c21 [naringenin] |  |
| acts in a favorable way | 316 | O=C1/C(=C/c2ccc(O)c(O)c2)Oc2cc(O)ccc21 [sulfuretin] |  |
| acts faintly | 4 | COc1cc(C(=O)O)ccc1O [vanillic acid] |  |

The next lines start with the molecule.

| Compound | Action of the enzyme to the phenolic hydroxyl groups of the substrate (in words) [4] | Relative activity (%) [4] [%] | also measured |
| --- | --- | --- | --- |
| O=C(O)[C@H]1O[C@@H]1C(=O)O (relative stereo) [(±)-trans-epoxysuccinic acid] |  |  | Km [1]: 2580 µM |
| O=C(O)C(O)C(Oc1cc(O)c2c(=O)c(-c3ccc(O)cc3)coc2c1O)C(=O)O (single isomer, unassigned) [2-[[5,8-dihydroxy-3-(4-hydroxyphenyl)-4-oxo-4H-1-benzopyran-7-yl]oxy]-3-hydroxy-butanedioic acid] |  |  | Inhibitory action against histidine decarboxylase (HDC) [2]: prominent inhibitory action |
| O=C(O)C(O)C(Oc1ccc2c(=O)c(-c3ccc(O)cc3)coc2c1)C(=O)O (single isomer, unassigned) [2-hydroxy-3-[[3-(4-hydroxyphenyl)-4-oxo-4H-1-benzopyran-7-yl]oxy]-butanedioic acid] |  |  | Inhibitory action against histidine decarboxylase (HDC) [2]: prominent inhibitory action |
| O=C(O)C(O)C(Oc1cc(O)c2c(=O)c(-c3ccc(O)cc3)coc2c1)C(=O)O (single isomer, unassigned) [2-hydroxy-3-[[5-hydroxy-3-(4-hydroxyphenyl)-4-oxo-4H-1-benzopyran-7-yl]oxy]-butanedioic acid] |  |  | Inhibitory action against histidine decarboxylase (HDC) [2]: prominent inhibitory action |
| O=C(O)C(O)C(Oc1cc(O)c2c(c1)O[C@H](c1ccc(O)c(O)c1)[C@@H](O)C2=O)C(=O)O (single isomer, unassigned) [Example 5 enzyme reaction product] |  |  | Solubility in solvents [3]: soluble in water, methanol and DMSO |
| O=C(/C=C/c1ccc(O)c(O)c1)c1c(O)cc(O)cc1O [2',4',6',3,4-pentahydroxychalcone] | acts in a favorable way | 115 |  |
| O=c1c(-c2ccc(O)cc2)coc2cc(O)c(O)cc12 [4',6,7-trihydroxyisoflavone] | acts in a favorable way | 182 |  |
| Cc1cc(=O)oc2cc(O)cc(O)c12 [5,7-dihydroxy-4-methylcoumarin] | acts in a favorable way | 107 |  |
| O=C1COc2cc(O)ccc21 [6-hydroxy-2H-benzofuran-3-one] | acts in a favorable way | 135 |  |
| O=C1c2c(O)cc(O)cc2O[C@H](c2ccc(O)c(O)c2)[C@H]1O [(+)-taxifolin] | acts in a favorable way | 106 |  |
| [Ca+2] [Ca^2+] |  |  | Relative activity (%) ([5]; 20 mM metallic ion): 140%; Influence on the activity of the present enzyme (in words) [5]: enhanced |
| [Co+2] [Co^2+] |  |  | Relative activity (%) ([5]; 20 mM metallic ion): 236%; Influence on the activity of the present enzyme (in words) [5]: enhanced |
| [Cu+2] [Cu^2+] |  |  | Relative activity (%) ([5]; 20 mM metallic ion): 0%; Influence on the activity of the present enzyme (in words) [5]: greatly inhibited |
| O=C(O)CN(CCN(CC(=O)O)CC(=O)O)CC(=O)O [EDTA, ethylenediamine-N,N,N'N'-tetraacetic acid disodium salt] |  |  | Relative activity (%) ([5]; 5 mM EDTA): 12%; Influence on the activity of the present enzyme (in words) [5]: greatly inhibited |
| O=C1C(=Cc2ccc(O)c(O)c2)Oc2cc(OC(C(=O)O)C(O)C(=O)O)ccc21 (centres unmarked) [Example 2 enzyme reaction product] |  |  | Solubility in solvents [3]: soluble in water, methanol and DMSO |
| O=C(O)C(O)C(Oc1ccc(-c2oc3cc(OC(C(=O)O)C(O)C(=O)O)cc(O)c3c(=O)c2O)cc1)C(=O)O (centres unmarked) [Example 3 enzyme reaction product II] |  |  | Solubility in solvents [3]: soluble in water, methanol and DMSO |
| O=C(O)C(O)C(Oc1cc(O)c2c(=O)c(O)c(-c3ccc(O)cc3)oc2c1)C(=O)O (centres unmarked) [Example 3 enzyme reaction product I] |  |  | Solubility in solvents [3]: soluble in water, methanol and DMSO |
| O=C1CC(c2ccc(OC(C(=O)O)C(O)C(=O)O)cc2)Oc2cc(OC(C(=O)O)C(O)C(=O)O)cc(O)c21 (centres unmarked) [Example 4 enzyme reaction product II] |  |  | Solubility in solvents [3]: soluble in water, methanol and DMSO |
| O=C1CC(c2ccc(O)cc2)Oc2cc(OC(C(=O)O)C(O)C(=O)O)cc(O)c21 (centres unmarked) [Example 4 enzyme reaction product I] |  |  | Solubility in solvents [3]: soluble in water, methanol and DMSO |
| O=C(O)C(O)C(Oc1cc(O)c2c(=O)cc(-c3ccc(O)cc3)oc2c1)C(=O)O (centres unmarked) [Example 6 enzyme reaction product] |  |  | Solubility in solvents [3]: soluble in water, methanol and DMSO |
| [Fe+2] [Fe^2+] |  |  | Relative activity (%) ([5]; 20 mM metallic ion): 125%; Relative activity (%) ([5]; 20 mM metallic ion, listed as Fe^3+): 33%; Influence on the activity of the present enzyme (in words) [5]: enhanced |
| [Mg+2] [Mg^2+] |  |  | Relative activity (%) ([5]; 20 mM metallic ion): 220%; Influence on the activity of the present enzyme (in words) [5]: enhanced |
| [Mn+2] [Mn^2+] |  |  | Relative activity (%) ([5]; 20 mM metallic ion): 268%; Influence on the activity of the present enzyme (in words) [5]: enhanced |
| [Ni+2] [Ni^2+] |  |  | Relative activity (%) ([5]; 20 mM metallic ion): 198%; Influence on the activity of the present enzyme (in words) [5]: enhanced |
| [Zn+2] [Zn^2+] |  |  | Relative activity (%) ([5]; 20 mM metallic ion): 416%; Influence on the activity of the present enzyme (in words) [5]: enhanced |
| Oc1cc(O)c2c(c1)OC(c1ccc(O)c(O)c1)C(O)C2 (centres unmarked) [catechin] |  | 16 |  |
| O=c1c(-c2ccc(O)cc2)coc2cc(O)cc(O)c12 [genistein] | acts in a favorable way | 100 | Km [1]: 1040 µM |
| O=c1c(O)c(-c2ccc(O)c(O)c2)oc2cc(O)cc(O)c12 [quercetin] |  | 31 |  |
